# B1: BMP4: signaling protein promoting ETS1 in initial neural crest stem cells (protein, UniProt P12644 293-408, looked up)
# Bone morphogenetic protein 4: SPKHHSQRARKKNKNCRRHSLYVDFSDVGWNDWIVAPPGYQAFYCHGDCPFPLADHLNSTNHAIVQTLVNSVNSSIPKACCVPTELSAISMLYLDEYDKVVLKNYQEMVVEGCGCR
# Key:
# Type in all cases: cell-based, human
# [1] = test system: initial NCSCs (expressing p75 NGFR or HNK1); assay: Gene expression analysis of NCSCs after second differentiation with axial specification stimulating factor
# Experimental: The NCSCs at the neural plate border-stage (cells on Day 5 of the differentiation) expressing p75 NGFR or HNK1 isolated by FACS in Example 3-1 were re-seeded at 300,000 cells per well in a 24-well plate coated with Geltrex, Matrigel, or Laminin+Fibronectin. After 24 hours, the PIM medium added on Day 5 for stabilization was gradually changed to a neurobasal medium containing 2% B-27 supplement, 1% N2 supplement, and 1% Glutamax together with fibroblast growth factor 2 (FGF2) (Table 2). As an axial specification stimulating factor, FGF2 was added to the culture medium on days 6 to 10 of differentiation, and the proliferated neural crest stem cells were purified by FACS using an antibody against the neural crest stem cell surface antigen p75 NGFR on days 11 to 14 of differentiation (FIG. 4).
# Accordingly, it was confirmed that the role of the non-NCSCs is to activate FGF signaling of the initial NCSCs, inducing to cranial specification.
# [2] = test system: initial NCSCs; assay: Mechanism analysis of axial specification of initial NCSCs by signaling factors (immunochemical analysis, FACS); settings: initial NCSCs isolated on Day 5; for ETS1 protein expression: FGF2 effect through BMP4
# Excerpt: (§1) The initial NCSCs were isolated on Day 5 of the differentiation, and then, on Days 5 or 10, the expression of the ETS1 protein was confirmed in the FGF2-treated NCSCs by immunochemical analysis, and the direct effects of various signaling factors on the initial NCSCs were confirmed by FACS analysis.
# [3] = test system: SOX9 reporter hESCs; assay: Differentiation into cranial NCSCs using SOX9 reporter hESC (FACS)
# Excerpt: as §1
# When NCSCs were differentiated without FGF2 treatment using SOX9: reporter hESC, a known marker of cranial NCSCs, the differentiation efficiency into cranial NCSCs was approximately 25%, and when treated with bFGF, the percentage of SOX9-expressing cells was 80% or more (FIGS. 8C and 8D).
# [4] = test system: NCSCs at the neural plate border-stage; assay: mRNA expression of cranial and cardiac NCSC markers after second differentiation
# Excerpt: The NCSCs (those on Day 5 of the differentiation) at the neural plate border-stage obtained through the first differentiation in Example 3-1 were re-distributed and each treated with bFGF or CHIR99021+ retinoic acid to be differentiated into cranial NCSCs or cardiac NCSCs.
# [5] = NCSCs treated at second differentiation
Molecule,"expression of the HOX gene [1, 5]","expression of the TWIST1 gene (marker gene of cranial NCSCs) [1, 5]","expression ratio of ETS1/ZIC1 ([1]; second culture for 5 days, isolated initial NCSC group and unisolated mixed cell group)","ZIC1 gene expression in single cells ([1]; single NCSCs, from Day 4)",ZIC1 gene expression [2],ETS1 protein expression [2],ZIC1 gene expression ([2]; listed as bFGF),"percentage of SOX9-expressing cells ([3]; SOX9 reporter hESC, cranial NCSC differentiation)",differentiation efficiency from SOX9 reporter hESCs into cranial neural crest stem cells ([3]; two-step differentiation method),mRNA expression of PRRX2 (cranial NCSC marker) [4],mRNA expression of SOX9 (cranial NCSC marker) [4],mRNA expression of TWIST1 (cranial NCSC marker) [4]
fibroblast growth factor 2 [FGF2],decreased expression,increased expression,increased,significant decrease,inhibit,promotion,inhibitory effect,≥ 80%,about 80%,increased,increased,increased
B1,,,,,,promotion,,,,,,

# Source: US20260201324A1, “METHOD FOR DIFFERENTIATING NEURAL CREST STEM CELLS COMPRISING AXIAL SPECIFICATION INFORMATION” (BLESS BIOTHERAPEUTICS INC., priority 2022, published 2026)
